Measured values: patent publication US20250376476A1, “Crystalline forms of a HER2 tyrosine kinase inhibitor” (Boehringer Ingelheim International GmbH, priority 2024, published 2025)
One block for each compound: values may come before it.

Columns and labels:
Format in all cases: physicochemical
[1] = Form IV slurry experiments in aqueous organic solvents with heat-cool cycles, solids analyzed by XRPD; conditions: 20 to 50° C. heat-cool cycles
Experimental: Zongertinib form IV (e.g. prepared according to any one of the procedures of reference example 1.3) was slurried in different aqueous organic solvent systems (12V, composition according to table 1) at a temperature ranging from 20 to 50° C. using a magnetic stir bar. Heat-cool-cycles were conducted using automation available on the Junior robot and as per the below program: • 1. Set stirring to 350 rpm (by means of magnetic stir bars) • 2. Heat to 50° C. (10° C./minute) • 3. Hold at 50° C. for 150 minutes • 4. Cool to 20° C. (−1° C./minute) • 5. Hold at 20° C. for 120 minutes • 6. Heat to 50° C. (5° C./minute) • 7. Hold at 50° C. for 120 minutes • 8. Cool to 20° C. (−1° C./minute) • 9. Set stirring to 0 rpm • 10. Hold at 20° C. for 16 hrs
The solids were collected and analyzed by XRPD.
(§1) XRPD was performed with a Bruker D8 Discover X-ray diffractometer. The instrument detector allows for two-dimensional diffractograms to be acquired. Solid samples were placed on a zero-background diffraction plate. The results were processed using DIFFRAC.EVA software. The diffraction pattern was integrated from two-dimensional to one-dimensional. The Kα2 contribution was stripped, no smoothing or background correction was performed. A typical precision of the 2-Theta values is in the range of ±0.2° 2-Theta, preferably in the range of ±0.1° 2-Theta. Thus, a reflection that usually appears at 7.0 2-Theta for example can appear between 6.8° and 7.2° 2-Theta, preferably between 6.9° and 7.1° 2-Theta on most X-ray diffractometers under standard conditions.

[2] = Suspension of form IV and form III stirred at 35° C. for 18 hrs, solid analyzed by XRPD; conditions: mixture of form IV and form III
Experimental: (§2) A suspension of zongertinib form IV (e.g. prepared according to any one of the procedures of reference example 1.3) and zongertinib form III (e.g. prepared according to reference example 1.2) in 20V of 1:1 (vol:vol) IPAc/water was stirred using overhead agitation at 35° C. for 18 hrs. The solid was collected and analyzed by XRPD confirming receipt of form XX.
as §2, with “water” for “1:1 (vol:vol) IPAc/water”
as §1, with “Thus, a reflection that usually appears at 7.0 2-Theta for example can appear between 6.8° and 7.2° 2-Theta, preferably between 6.9° and 7.1° 2-Theta on most X-ray diffractometers under standard conditions.” left out

[3] = Polarized light microscopy (PLM), crystal habit
From the text: Crystal habits of zongertinib forms XXIV, XIX and XX have been elucidated using polarized light microscopy. Depending on the starting material, form XVIII can be obtained in different crystal shapes.

[4] = Thermal gravimetric analysis (TGA); conditions: ambient to 600° C., heating rate 20° C./min
Experimental: TGA was performed with a TA Instruments TGA 550. Samples (5 mg) were heated in aluminium pans with a sealed aluminium lid from ambient temperature to 600° C. at a heating rate of 20° C./min. Processing was completed using TRIOS software.

[5] = Excessive drying of form XXIV and/or form XIX; conditions: typically temperatures >50° C. under vacuum
Experimental: Form XVIII is formed upon excessive drying of form XXIV and/or form XIX (e.g. prepared according to any one of examples 1.1 to 1.4 herein). Typically, drying is performed at temperatures >50° C. under vacuum.

SMILES: C=CC(=O)NC1CCN(c2ncc3ncnc(Nc4ccc(Oc5ccc6c(c5)ncn6C)c(C)c4)c3n2)CC1 [Form IV, zongertinib]
- XRPD results after slurry ([1]; 12V 1:1 (vol:vol) ACN:water): Form XIX
- XRPD results after slurry ([1]; 12V 1:1 (vol:vol) EtOH:water): Form XIX
- XRPD results after slurry ([1]; 12V 1:1 (vol:vol) IPAc:water): Form XXIV
- XRPD results after slurry ([1]; 12V 2:1 (vol:vol) THF:water): Form XXIV
- Solid form by XRPD after stirring suspension ([2]; 20V of 1:1 (vol:vol) IPAc/water): form XX
- Solid form by XRPD after stirring suspension ([2]; 20V of water): form XX

SMILES: C=CC(=O)NC1CCN(c2ncc3ncnc(Nc4ccc(Oc5ccc6c(c5)ncn6C)c(C)c4)c3n2)CC1 [Form XIX, zongertinib]
- Crystal Habit ([3]; listed as XIX): lath-shaped crystals
- TGA sample decomposition start temperature ([4]; listed as form XIX): about 327 °C

SMILES: C=CC(=O)NC1CCN(c2ncc3ncnc(Nc4ccc(Oc5ccc6c(c5)ncn6C)c(C)c4)c3n2)CC1 [Form XVIII, zongertinib]
- Crystal Habit ([3]; listed as XVIII (drying of XIX)): lath-shaped crystals
- Crystal Habit ([3]; listed as XVIII (drying of XXIV)): plate-shaped and lath shaped crystals
- TGA sample decomposition start temperature ([4]; listed as form XVIII): about 394 °C

Now from value to compound:

- Crystal Habit ([3]; listed as XX): needle-shaped crystals
- TGA sample decomposition start temperature ([4]; listed as form XX): about 393 °C
SMILES: C=CC(=O)NC1CCN(c2ncc3ncnc(Nc4ccc(Oc5ccc6c(c5)ncn6C)c(C)c4)c3n2)CC1 [Form XX, zongertinib]

- Crystal Habit ([3]; listed as XXIV): plate-shaped and lath shaped crystals
- Form obtained upon excessive drying [5]: Form XVIII
- TGA sample decomposition start temperature ([4]; listed as form XXIV): about 415 °C
SMILES: C=CC(=O)NC1CCN(c2ncc3ncnc(Nc4ccc(Oc5ccc6c(c5)ncn6C)c(C)c4)c3n2)CC1 [Form XXIV, zongertinib]
